{"source": "paper PMC12162873", "about": "“Modulating phosphatase DUSP22 with BML-260 ameliorates skeletal muscle wasting via Akt independent JNK-FOXO3a repression” (EMBO Molecular Medicine, 2025)", "test_system": "C2C12 murine myotubes", "experiment": "RNA Seq of DUSP22 expression in Dex-treated C2C12 myotubes", "format": "cell-based, mouse", "conditions": "C2C12 myotubes treated with Dex, three clusters of n = 3, replicates", "description": "(A) DUSP22 expression in aged individuals (over 70 years, n = 15) and aged individuals diagnosed with sarcopenia (over 70 years, n = 18), p = 0.0009 (obtained from the Singapore Sarcopenia Study; (GEO accession no. GSE111016 (Migliavacca et al, [2019])). (B) DUSP22 expression in C2C12 murine myotubes treated with vehicle or dexamethasone (Dex) to induce atrophy (n = 3 each) Custer 1 (p = 0.024), Cluster 2 (p = 0.13), Cluster 3 (p = 0.0246). Expression was measured using RNA Seq. TPM=transcript per million. (C) qPCR analysis of DUSP22 expression in four models of muscle atrophy: (1) C2C12 myotubes treated with Dex (n = 5), p = 7.67E−05, (2) the TA muscle of C57BL/6 mice treated with Dex (n = 4), p = 0.09, (3) the TA muscle of young (5 months-old, n = 9) and geriatric (27 months-old, n = 8) C57BL/6 mice, p = 0.0324, (4) the TA of C57BL/6 mice after hind limb immobilization (n = 3), p = 0.018. (D) qPCR of DUSP22 expression in C2C12 myoblasts transfected with a DUSP22 CRISPR activation plasmid (DUSP22^endoOE) or control plasmid (CON^endoOE) (n = 3), p = 0.0022. (E) Fast myosin (MYH2) immunocytochemistry of CON^endoOE and DUSP22^endoOE myoblasts after 96 h culture in DM (scale bar = 100 µm). (F) Fusion index (n = 6). (G) Differentiation index (n = 6), p = 9.91E−09. […]", "note": "Several values for one entry are separate records, joined by “and”; a condition that tells them apart may be missing. Equal entries are not always repeated.", "data": [{"smiles": "C[C@@H]1C[C@H]2[C@@H]3CCC4=CC(=O)C=C[C@]4(C)[C@@]3(F)[C@@H](O)C[C@]2(C)[C@@]1(O)C(=O)CO", "note": "[Dex, dexamethasone]", "values": [{"measurement": "DUSP22 expression, RNA Seq", "value": "18.5715 TPM and 15.8769 TPM and 15.1133 TPM and 25.7965 TPM and 17.3247 TPM and 20.9604 TPM and 20.6804 TPM and 15.7123 TPM and 15.7246 TPM"}]}]}
